Our source for the minimal effective dose and LD50 values is patent US4296126A, “3-Aryloxy-3-aryl-propaneamines and their method of use” (Roussel Uclaf, priority 1978, dated 1981).

The subject of one series is dogs. The experiment in a line: Anorexigenic activity in dogs (method of Adams et al). It counts as in vivo, dog. The settings on record: Canis lupus familiaris, po, compound given in lieu of first ball, balls offered every 10 minutes for 7 hours, activity grew with increasing doses, read-out: dose at which anorexigenic activity was shown (refusal of food balls). As for the experimental part: The anorexigenic activity was studied in dogs using the method of Adams et al [J. Pharm. Sci., Vol. 53, (1964), p. 1405]. On the day of the test with the compound presumed to be anorexigenic, the individual daily ration of the animal was divided into about equal balls (10 to 20 g) which were offered to the dog every 10 minutes for 7 hours. Normally, the animal will regularly accept the successive balls when they are presented.

Series [1] in a line: Acute toxicity, LD50 in mice after intraperitoneal administration. The settings on record: mouse, in vivo, ip, determined 48 hours after administration. As for the experimental part:
The LD50 or lethal dose at which 50% of the animals died after intraperitoneal administration of the test compound to mice was determined 48 hours after the administration.

Structures can show the parent of a compound that is named as a salt.

Broadly, the LD50 is the dose at which mortality reaches 50%. In the case of `CN(C)CCC(Oc1ccc([N+](=O)[O-])cc1)c1ccccc1` (centres unmarked) [Example 1, N,N-dimethyl-γ-(4-nitrophenoxy)-benzene-propanamine oxalate], the minimal effective dose with dogs worked out at 3 mg/kg. Besides, the LD50 at 48 h in series [1] is around 75 mg/kg.
